From PubChem BioAssay (NCI)
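GI50: concentration for 50% inhibition of growth. Definition used: TGI = concentration required for complete inhibition of growth.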

Legend:
Test in all cases: inhibition of tumour cell growth, NCI panel, 384-well format
RPMI-8226 leukemia = test system: RPMI-8226 leukemia
HCT-116 colon = test system: HCT-116 colon
OVCAR-4 ovarian = test system: OVCAR-4 ovarian
MALME-3M melanoma = test system: MALME-3M melanoma
SK-MEL-5 melanoma = test system: SK-MEL-5 melanoma
MOLT-4 leukemia = test system: MOLT-4 leukemia
HCC-2998 colon = test system: HCC-2998 colon
HT29 colon = test system: HT29 colon
HL-60(TB) leukemia = test system: HL-60(TB) leukemia
OVCAR-3 ovarian = test system: OVCAR-3 ovarian
IGROV1 ovarian = test system: IGROV1 ovarian
MDA-MB-468 breast = test system: MDA-MB-468 breast
LOX IMVI melanoma = test system: LOX IMVI melanoma
UO-31 renal = test system: UO-31 renal
SNB-19 CNS = test system: SNB-19 CNS
HOP-92 NSCLC = test system: HOP-92 NSCLC
786-0 renal = test system: 786-0 renal
OVCAR-5 ovarian = test system: OVCAR-5 ovarian
RXF 393 renal = test system: RXF 393 renal
EKVX NSCLC = test system: EKVX NSCLC
U251 glioblastoma = test system: U251 glioblastoma
SN12C renal = test system: SN12C renal
NCI-H322M lung = test system: NCI-H322M lung
CCRF-CEM leukemia = test system: CCRF-CEM leukemia
CAKI-1 renal = test system: CAKI-1 renal
SNB-75 CNS = test system: SNB-75 CNS
T-47D breast = test system: T-47D breast
DU-145 prostate = test system: DU-145 prostate
ACHN renal = test system: ACHN renal
TK-10 renal = test system: TK-10 renal
A498 renal = test system: A498 renal
COLO 205 colon = test system: COLO 205 colon
SF-268 CNS = test system: SF-268 CNS
HS 578T breast = test system: HS 578T breast
BT-549 breast = test system: BT-549 breast
UACC-62 melanoma = test system: UACC-62 melanoma
KM12 colon = test system: KM12 colon
SK-OV-3 ovarian = test system: SK-OV-3 ovarian
UACC-257 melanoma = test system: UACC-257 melanoma
NCI-H522 lung = test system: NCI-H522 lung
SK-MEL-28 melanoma = test system: SK-MEL-28 melanoma
OVCAR-8 ovarian = test system: OVCAR-8 ovarian
NCI/ADR-RES ovarian = test system: NCI/ADR-RES ovarian
SF-539 CNS = test system: SF-539 CNS
M14 melanoma = test system: M14 melanoma
SK-MEL-2 melanoma = test system: SK-MEL-2 melanoma
SW-620 colon = test system: SW-620 colon
SR leukemia = test system: SR leukemia
MDA-MB-231 breast = test system: MDA-MB-231 breast
PC-3 prostate = test system: PC-3 prostate
NCI-H226 lung = test system: NCI-H226 lung
A549 NSCLC = test system: A549 NSCLC
HOP-62 NSCLC = test system: HOP-62 NSCLC
HCT-15 colon = test system: HCT-15 colon
NCI-H23 lung = test system: NCI-H23 lung
K-562 leukemia = test system: K-562 leukemia
MDA-MB-435 melanoma = test system: MDA-MB-435 melanoma
SF-295 CNS = test system: SF-295 CNS
NCI-H460 NSCLC = test system: NCI-H460 NSCLC

What does the source list for `CC(=O)c1ccc2c(c1)c1cc(C(C)=O)ccc1n2CCNC(C)C`?
GI50 (RPMI-8226 leukemia): 164 nM; TGI (RPMI-8226 leukemia): 303 nM; GI50 (HCT-116 colon): 199 nM; TGI (HCT-116 colon): 731 nM; GI50 (OVCAR-4 ovarian): 244 nM; TGI (OVCAR-4 ovarian): 637 nM; GI50 (MALME-3M melanoma): 172 nM; TGI (MALME-3M melanoma): 319 nM; GI50 (SK-MEL-5 melanoma): 178 nM; TGI (SK-MEL-5 melanoma): 322 nM; GI50 (MOLT-4 leukemia): 34.6 nM; TGI (MOLT-4 leukemia): 101 nM; GI50 (HCC-2998 colon): 311 nM; TGI (HCC-2998 colon): 811 nM; GI50 (HT29 colon): 206 nM; TGI (HT29 colon): 1030 nM; GI50 (HL-60(TB) leukemia): 201 nM; TGI (HL-60(TB) leukemia): 349 nM; GI50 (OVCAR-3 ovarian): 273 nM; TGI (OVCAR-3 ovarian): 969 nM; GI50 (IGROV1 ovarian): 480 nM; TGI (IGROV1 ovarian): 15100 nM; GI50 (MDA-MB-468 breast): 164 nM; TGI (MDA-MB-468 breast): 306 nM; GI50 (LOX IMVI melanoma): 192 nM; TGI (LOX IMVI melanoma): 338 nM; GI50 (UO-31 renal): 168 nM; TGI (UO-31 renal): 308 nM; GI50 (SNB-19 CNS): 279 nM; TGI (SNB-19 CNS): 2650 nM; GI50 (HOP-92 NSCLC): 225 nM; TGI (HOP-92 NSCLC): 656 nM; GI50 ([…]-0 renal): 228 nM; TGI (786-0 renal): 855 nM; GI50 (OVCAR-5 ovarian): 433 nM; TGI (OVCAR-5 ovarian): 14300 nM; GI50 (RXF 393 renal): 170 nM; TGI (RXF 393 renal): 529 nM; GI50 (EKVX NSCLC): 409 nM; TGI (EKVX NSCLC): 931 nM; GI50 (U251 glioblastoma): 248 nM; TGI (U251 glioblastoma): 715 nM; GI50 (SN12C renal): 221 nM; TGI (SN12C renal): 728 nM; GI50 (NCI-H322M lung): 234 nM; TGI (NCI-H322M lung): 543 nM; GI50 (CCRF-CEM leukemia): 148 nM; TGI (CCRF-CEM leukemia): 299 nM; GI50 (CAKI-1 renal): 150 nM; TGI (CAKI-1 renal): 317 nM; GI50 (SNB-75 CNS): 264 nM; TGI (SNB-75 CNS): 743 nM; GI50 (T-47D breast): 258 nM; TGI (T-47D breast): 619 nM; GI50 (DU-145 prostate): 344 nM; TGI (DU-145 prostate): 1430 nM; GI50 (ACHN renal): 101 nM; TGI (ACHN renal): 245 nM; GI50 (TK-10 renal): 472 nM; TGI (TK-10 renal): 11700 nM; GI50 (A498 renal): 182 nM; TGI (A498 renal): 329 nM; GI50 (COLO 205 colon): 164 nM; TGI (COLO 205 colon): 311 nM; GI50 (SF-268 CNS): 222 nM; TGI (SF-268 CNS): 618 nM; GI50 (HS 578T breast): 195 nM; TGI (HS 578T breast): 376 nM; GI50 (BT-549 breast): 348 nM; TGI (BT-549 breast): 932 nM; GI50 (UACC-62 melanoma): 170 nM; TGI (UACC-62 melanoma): 313 nM; GI50 (KM12 colon): 286 nM; TGI (KM12 colon): 2270 nM; GI50 (SK-OV-3 ovarian): 300 nM; TGI (SK-OV-3 ovarian): 1230 nM; GI50 (UACC-257 melanoma): 182 nM; TGI (UACC-257 melanoma): 351 nM; GI50 (NCI-H522 lung): 152 nM; TGI (NCI-H522 lung): 307 nM; GI50 (SK-MEL-28 melanoma): 207 nM; TGI (SK-MEL-28 melanoma): 435 nM; GI50 (OVCAR-8 ovarian): 276 nM; TGI (OVCAR-8 ovarian): 1320 nM; GI50 (NCI/ADR-RES ovarian): 204 nM; TGI (NCI/ADR-RES ovarian): 472 nM; GI50 (SF-539 CNS): 228 nM; TGI (SF-539 CNS): 669 nM; GI50 (M14 melanoma): 259 nM; TGI (M14 melanoma): 665 nM; GI50 (SK-MEL-2 melanoma): 263 nM; TGI (SK-MEL-2 melanoma): 478 nM; GI50 (SW-620 colon): 207 nM; TGI (SW-620 colon): 736 nM; GI50 (SR leukemia): 33.8 nM; TGI (SR leukemia): 86.6 nM; GI50 (MDA-MB-231 breast): 194 nM; TGI (MDA-MB-231 breast): 446 nM; GI50 (PC-3 prostate): 279 nM; TGI (PC-3 prostate): 782 nM; GI50 (NCI-H226 lung): 153 nM; TGI (NCI-H226 lung): 308 nM; GI50 (A549 NSCLC): 189 nM; TGI (A549 NSCLC): 353 nM; GI50 (HOP-62 NSCLC): 201 nM; TGI (HOP-62 NSCLC): 755 nM; GI50 (HCT-15 colon): 206 nM; TGI (HCT-15 colon): 464 nM; GI50 (NCI-H23 lung): 193 nM; TGI (NCI-H23 lung): 461 nM; GI50 (K-562 leukemia): 178 nM; TGI (K-562 leukemia): 405 nM; GI50 (MDA-MB-435 melanoma): 320 nM; TGI (MDA-MB-435 melanoma): 922 nM; GI50 (SF-295 CNS): 309 nM; TGI (SF-295 CNS): 1170 nM; GI50 (NCI-H460 NSCLC): 164 nM; TGI (NCI-H460 NSCLC): 316 nM
